# US9469650B2, “Melampomagnolide B derivatives” (BOARD OF TRUSTEES OF THE UNIVERSITY OF ARKANSAS, priority 2013, dated 2016)
# Key:
# [1] = test system: LOX IMVI; experiment: panel of 60 human tumor cell lines, growth inhibition (Melanoma)
# [2] = test system: UACC-257; experiment: as above; settings: UACC-257
# [3] = test system: SF-268; experiment: panel of 60 human tumor cell lines, growth inhibition (CNS Cancer); settings: SF-268
# [4] = test system: SF-295; experiment: as above; settings: SF-295
# [5] = test system: SNB-19; experiment: as above; settings: SNB-19
# [6] = test system: U251; experiment: as above; settings: U251
# [7] = test system: HCC-2998; experiment: panel of 60 human tumor cell lines, growth inhibition (Colon Cancer); settings: HCC-2998
# [8] = test system: SW-620; experiment: as above; settings: SW-620
# [9] = test system: A498; experiment: panel of 60 human tumor cell lines, growth inhibition (Renal Cancer); settings: A498
# [10] = test system: CAKI-1; experiment: as above; settings: CAKI-1
# [11] = test system: SN12C; experiment: as above
# [12] = test system: MDA-MB-231/ATCC; experiment: panel of 60 human tumor cell lines, growth inhibition (Breast Cancer); settings: MDA-MB-231/ATCC
# [13] = test system: IGROV1; experiment: panel of 60 human tumor cell lines, growth inhibition (Ovarian Cancer); settings: IGROVI
# [14] = test system: OVCAR-5; experiment: as above; settings: OVCAR-5
# [15] = test system: PC-3; experiment: panel of 60 human tumor cell lines, growth inhibition (Prostate Cancer); settings: PC-3
# [16] = test system: A549/ATCC; experiment: panel of 60 human tumor cell lines, growth inhibition (Non-Small Cell Lung Cancer); settings: A549/ATCC
# [17] = test system: HOP-62; experiment: as above; settings: HOP-62
# [18] = test system: HOP-92; experiment: as above; settings: HOP-92
# [19] = test system: NCI-H522; experiment: as above; settings: NCI-H522
smiles,measurement,setting,value
C=C1C(=O)O[C@H]2[C@H]1CC/C(COC(=O)NCCO)=C\CC[C@@]1(C)O[C@@H]21 [JVM 2-50],Percent Growth,[1]; Log10 Concentration −4.0,−88%
same,Percent Growth,[1]; Log10 Concentration −5.0,67%
same,Percent Growth,[1]; Log10 Concentration −6.0,98%
same,Percent Growth,[1]; Log10 Concentration −7.0,102%
same,Percent Growth,[1]; Log10 Concentration −8.0,100%
same,GI50,[1]; NCI five dose,12.9 µM
same,TGI,[1]; NCI five dose,2.72E−5
same,Percent Growth,[2]; Log10 Concentration −4.0,−73%
same,Percent Growth,[2]; Log10 Concentration −5.0,44%
same,Percent Growth,[2]; Log10 Concentration −6.0,65%
same,Percent Growth,[2]; Log10 Concentration −7.0,90%
same,Percent Growth,[2]; Log10 Concentration −8.0,95%
same,GI50,[2]; NCI five dose,7 µM
same,TGI,[2]; NCI five dose,2.37E−5
same,Percent Growth,[3]; Log10 Concentration −4.0,−51%
same,Percent Growth,[3]; Log10 Concentration −5.0,90%
same,Percent Growth,[3]; Log10 Concentration −6.0,100%
same,Percent Growth,[3]; Log10 Concentration −7.0,99%
same,Percent Growth,[3]; Log10 Concentration −8.0,99%
same,GI50,[3]; NCI five dose,19.3 µM
same,TGI,[3]; NCI five dose,4.38E−5
same,Percent Growth,[4]; Log10 Concentration −4.0,44%
same,Percent Growth,[4]; Log10 Concentration −5.0,92%
same,Percent Growth,[4]; Log10 Concentration −6.0,95%
same,Percent Growth,[4]; Log10 Concentration −7.0,90%
same,Percent Growth,[4]; Log10 Concentration −8.0,88%
same,GI50,[4]; NCI five dose,73.7 µM
same,TGI,[4]; NCI five dose,1.06E−4
same,Percent Growth,[5]; Log10 Concentration −4.0,19%
same,Percent Growth,[5]; Log10 Concentration −5.0,84%
same,Percent Growth,[5]; Log10 Concentration −6.0,95%
same,Percent Growth,[5]; Log10 Concentration −7.0,93%
same,Percent Growth,[5]; Log10 Concentration −8.0,99%
same,GI50,[5]; NCI five dose,32.6 µM
same,TGI,[5]; NCI five dose,>1.00E−4
same,Percent Growth,[6]; Log10 Concentration −4.0,−26%
same,Percent Growth,[6]; Log10 Concentration −5.0,94%
same,Percent Growth,[6]; Log10 Concentration −6.0,91%
same,Percent Growth,[6]; Log10 Concentration −7.0,95%
same,Percent Growth,[6]; Log10 Concentration −8.0,97%
same,GI50,[6]; NCI five dose,23.3 µM
same,TGI,[6]; NCI five dose,6.08E−5
same,Percent Growth,[7]; Log10 Concentration −4.0,−70%
same,Percent Growth,[7]; Log10 Concentration −5.0,105%
same,Percent Growth,[7]; Log10 Concentration −6.0,136%
same,Percent Growth,[7]; Log10 Concentration −7.0,106%
same,Percent Growth,[7]; Log10 Concentration −8.0,98%
same,GI50,[7]; NCI five dose,20.6 µM
same,TGI,[7]; NCI five dose,3.99E−5
same,Percent Growth,[8]; Log10 Concentration −4.0,−71%
same,Percent Growth,[8]; Log10 Concentration −5.0,93%
same,Percent Growth,[8]; Log10 Concentration −6.0,101%
same,Percent Growth,[8]; Log10 Concentration −7.0,104%
same,Percent Growth,[8]; Log10 Concentration −8.0,102%
same,GI50,[8]; NCI five dose,18.2 µM
same,TGI,[8]; NCI five dose,3.67E−5
same,Percent Growth,[9]; Log10 Concentration −4.0,−25%
same,Percent Growth,[9]; Log10 Concentration −5.0,58%
same,Percent Growth,[9]; Log10 Concentration −6.0,60%
same,Percent Growth,[9]; Log10 Concentration −7.0,68%
same,Percent Growth,[9]; Log10 Concentration −8.0,74%
same,GI50,[9]; NCI five dose,12.4 µM
same,TGI,[9]; NCI five dose,5.01E−5
same,Percent Growth,[10]; Log10 Concentration −4.0,−65%
same,Percent Growth,[10]; Log10 Concentration −5.0,48%
same,Percent Growth,[10]; Log10 Concentration −6.0,87%
same,Percent Growth,[10]; Log10 Concentration −7.0,91%
same,Percent Growth,[10]; Log10 Concentration −8.0,89%
same,GI50,[10]; NCI five dose,8.99 µM
same,TGI,[10]; NCI five dose,2.67E−5
same,Percent Growth,[11]; Log10 Concentration −4.0,−12%
same,Percent Growth,[11]; Log10 Concentration −5.0,73%
same,Percent Growth,[11]; Log10 Concentration −6.0,31%
same,Percent Growth,[11]; Log10 Concentration −7.0,91%
same,Percent Growth,[11]; Log10 Concentration −8.0,94%
same,GI50,[11]; NCI five dose,18.6 µM
same,TGI,[11]; NCI five dose,7.22E−5
same,Percent Growth,[12]; Log10 Concentration −4.0,−66%
same,Percent Growth,[12]; Log10 Concentration −5.0,63%
same,Percent Growth,[12]; Log10 Concentration −6.0,99%
same,Percent Growth,[12]; Log10 Concentration −7.0,91%
same,Percent Growth,[12]; Log10 Concentration −8.0,100%
same,GI50,[12]; NCI five dose,12.7 µM
same,TGI,[12]; NCI five dose,1.10E−5
same,Percent Growth,[13]; Log10 Concentration −4.0,−36%
same,Percent Growth,[13]; Log10 Concentration −5.0,49%
same,Percent Growth,[13]; Log10 Concentration −6.0,109%
same,Percent Growth,[13]; Log10 Concentration −7.0,106%
same,Percent Growth,[13]; Log10 Concentration −8.0,95%
same,GI50,[13]; NCI five dose,9.79 µM
same,TGI,[13]; NCI five dose,1.80E−5
same,Percent Growth,[14]; Log10 Concentration −4.0,−54%
same,Percent Growth,[14]; Log10 Concentration −5.0,68%
same,Percent Growth,[14]; Log10 Concentration −6.0,85%
same,Percent Growth,[14]; Log10 Concentration −7.0,91%
same,Percent Growth,[14]; Log10 Concentration −8.0,89%
same,GI50,[14]; NCI five dose,14 µM
same,TGI,[14]; NCI five dose,1.59E−5
same,Percent Growth,[15]; Log10 Concentration −4.0,−21%
same,Percent Growth,[15]; Log10 Concentration −5.0,94%
same,Percent Growth,[15]; Log10 Concentration −6.0,97%
same,Percent Growth,[15]; Log10 Concentration −7.0,93%
same,Percent Growth,[15]; Log10 Concentration −8.0,98%
same,GI50,[15]; NCI five dose,24.1 µM
same,TGI,[15]; NCI five dose,6.57E−5
same,Percent Growth,[16]; Log10 Concentration −4.0,3%
same,Percent Growth,[16]; Log10 Concentration −5.0,93%
same,Percent Growth,[16]; Log10 Concentration −6.0,96%
same,Percent Growth,[16]; Log10 Concentration −7.0,92%
same,Percent Growth,[16]; Log10 Concentration −8.0,96%
same,GI50,[16]; NCI five dose,30.2 µM
same,TGI,[16]; NCI five dose,>1.00E−4
same,Percent Growth,[17]; Log10 Concentration −4.0,9%
same,Percent Growth,[17]; Log10 Concentration −5.0,88%
same,Percent Growth,[17]; Log10 Concentration −6.0,92%
same,Percent Growth,[17]; Log10 Concentration −7.0,90%
same,Percent Growth,[17]; Log10 Concentration −8.0,88%
same,GI50,[17]; NCI five dose,30.4 µM
same,TGI,[17]; NCI five dose,>1.00E−4
same,Percent Growth,[18]; Log10 Concentration −4.0,−88%
same,Percent Growth,[18]; Log10 Concentration −5.0,13%
same,Percent Growth,[18]; Log10 Concentration −6.0,94%
same,Percent Growth,[18]; Log10 Concentration −7.0,86%
same,Percent Growth,[18]; Log10 Concentration −8.0,90%
same,GI50,[18]; NCI five dose,3.49 µM
same,TGI,[18]; NCI five dose,1.35E−5
same,Percent Growth,[19]; Log10 Concentration −4.0,−69%
same,Percent Growth,[19]; Log10 Concentration −5.0,−56%
same,Percent Growth,[19]; Log10 Concentration −6.0,97%
same,Percent Growth,[19]; Log10 Concentration −7.0,104%
same,Percent Growth,[19]; Log10 Concentration −8.0,98%
same,GI50,[19]; NCI five dose,2.03 µM
same,TGI,[19]; NCI five dose,4.30E−6
